According to patent publication US9371365B2, “Modified compstatin with peptide backbone and C-terminal modifications” (The Trustees of the University of Pennsylvania, priority 2009, dated 2016):
Read-outs that look alike come from different tables or passages of the source.

Assays:
[1] = system: classical pathway of complement; assay: Inhibition of classical pathway complement activation, ELISA in human serum; assay type: biochemical; conditions: relative to peptide 1; NA: not active
Procedure: The ability of the compstatin analogs to inhibit the activation of the classical pathway of complement was assessed by ELISA (Mallik et al., 2005, J Med Chem 48:274-86). In brief, complement was activated in human serum using an antigen-antibody complex in the presence or absence of compstatin analogs, and the deposition of C3 fragments on the plate surface was detected using an HRP-conjugated polyclonal anti-C3 antibody. […] The percent inhibition was plotted against the peptide concentration, and the resulting data set was fitted to the logistic dose-response function using Origin 7.0 software. IC50 values were obtained from the fitted parameters that produced the lowest χ^2 value. Each analog was assayed at least three to seven times.
The ability of the compstatin analogs to inhibit the activation of the classical pathway of complement was assessed by ELISA as described in Example 1. Each conjugate was assayed at least three times.

[2] = system: classical pathway of complement; conditions: data from Sahu et al., 1996; cited from earlier work
C3b = target: T1, C3b (Homo sapiens, UniProt P01024); assay: SPR analysis of binding kinetics to immobilized C3b; conditions: SPR, Table 2-1
T1 construct: biotin (chemical biotinylation of C3b)
T1 sequence (P01024 23-667 limits assumed): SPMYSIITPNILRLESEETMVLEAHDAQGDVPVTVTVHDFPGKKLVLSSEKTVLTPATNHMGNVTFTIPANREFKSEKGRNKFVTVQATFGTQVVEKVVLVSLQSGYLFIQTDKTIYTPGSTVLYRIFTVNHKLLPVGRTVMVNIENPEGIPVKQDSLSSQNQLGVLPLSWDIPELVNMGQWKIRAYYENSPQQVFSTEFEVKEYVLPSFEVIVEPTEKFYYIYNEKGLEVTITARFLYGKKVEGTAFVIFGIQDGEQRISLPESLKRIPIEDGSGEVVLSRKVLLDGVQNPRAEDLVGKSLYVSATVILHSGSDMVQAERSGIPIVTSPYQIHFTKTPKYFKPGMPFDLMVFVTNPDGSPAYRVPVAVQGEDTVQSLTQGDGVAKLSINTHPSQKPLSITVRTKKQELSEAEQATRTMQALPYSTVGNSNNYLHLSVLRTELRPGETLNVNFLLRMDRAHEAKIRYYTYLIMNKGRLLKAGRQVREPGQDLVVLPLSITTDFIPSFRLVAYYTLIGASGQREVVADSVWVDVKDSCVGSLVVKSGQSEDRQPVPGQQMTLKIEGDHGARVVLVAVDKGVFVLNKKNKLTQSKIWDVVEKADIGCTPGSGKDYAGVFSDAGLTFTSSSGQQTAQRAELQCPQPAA
T1 sequence (P01024 749-1663 limits assumed): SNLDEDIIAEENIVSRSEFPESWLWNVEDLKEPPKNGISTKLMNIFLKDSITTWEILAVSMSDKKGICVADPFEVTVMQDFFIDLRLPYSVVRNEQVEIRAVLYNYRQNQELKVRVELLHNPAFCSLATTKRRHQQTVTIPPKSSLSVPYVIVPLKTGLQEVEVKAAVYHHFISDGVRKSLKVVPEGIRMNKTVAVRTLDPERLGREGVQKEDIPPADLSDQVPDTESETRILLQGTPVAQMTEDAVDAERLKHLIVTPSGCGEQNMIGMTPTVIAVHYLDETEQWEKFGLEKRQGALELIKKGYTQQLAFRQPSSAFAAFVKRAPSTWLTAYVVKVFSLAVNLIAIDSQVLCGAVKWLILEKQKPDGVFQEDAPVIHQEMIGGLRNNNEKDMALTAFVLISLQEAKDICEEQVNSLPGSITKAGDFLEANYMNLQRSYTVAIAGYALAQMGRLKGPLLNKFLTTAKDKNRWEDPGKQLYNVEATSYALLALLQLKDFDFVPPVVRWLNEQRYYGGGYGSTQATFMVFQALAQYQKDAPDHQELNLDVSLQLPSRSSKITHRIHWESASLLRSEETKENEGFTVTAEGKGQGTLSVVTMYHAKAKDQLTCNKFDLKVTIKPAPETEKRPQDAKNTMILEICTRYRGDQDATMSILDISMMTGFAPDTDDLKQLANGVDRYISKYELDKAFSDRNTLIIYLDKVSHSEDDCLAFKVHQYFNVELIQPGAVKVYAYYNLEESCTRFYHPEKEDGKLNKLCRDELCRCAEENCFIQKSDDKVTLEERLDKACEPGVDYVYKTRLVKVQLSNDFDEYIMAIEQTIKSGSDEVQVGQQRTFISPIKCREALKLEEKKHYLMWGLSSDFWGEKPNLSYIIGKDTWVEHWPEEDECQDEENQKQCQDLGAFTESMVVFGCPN
Procedure: (§1) The kinetics of the interaction between C3b and each compstatin analog was analyzed by SPR on a Biacore 3000 instrument (GE Healthcare Corp., Piscataway, N.J.) at 25° C. using PBS-T (10 mM sodium phosphate, 150 mM NaCl, 0.005% Tween-20, pH 7.4) as the running buffer, as described above. In brief, biotinylated C3b (30 μg/mL) was immobilized on a streptavidin-coated sensor chip, and a two-fold serial dilution series (1 μM-500 pM) of each analog was injected for 2 min at 30 μl/min, with a dissociation phase of 5-10 min. Peptide [Trp(Me)^4]-Ac-compstatin was included in each experimental series as an internal control and reference. Data analysis was performed using Scrubber (BioLogic Software, Campbell, Australia). The signals from an untreated flow cell and an ensemble of buffer blank injections were subtracted to correct for buffer effects and injection artifacts. Processed biosensor data were globally fitted to a 1:1 Langmuir binding model, and the equilibrium dissociation constant (KD) was calculated from the equation KD=kd/ka. Peptide solutions were injected in duplicate in every experiment, and each screening assay was performed at least twice.
as §1, with “in Example 1.” for “above.”, “μg/ml)” for “μg/mL)”, “Peptide [Trp(Me)^4]-Ac-compstatin was included in each experimental series as an internal control and reference.” left out

[3] = In vivo retention: plasma half-life in baboons by LC-MS/MS; parameters: species or system baboon (P. Anubis); conditions: for half-life: baboon (P. Anubis)
Procedure: A 96-well plate HLB Oasis 10 mg (Waters, Milford, Mass.) was employed for extraction. The SPE material was conditioned by addition of 500 μl of methanol followed by addition of 500 μL of milli-Q water. Sample was prepared by addition of the internal standard followed by 1:1 dilution with 4% H3PO4. After loading the sample, washing was carried out with 500 μL of 5% methanol in 0.1% formic acid. Sample was eluted with 150 μL of 65% methanol in 0.1% formic acid and collected in the collection plate. Solvent was evaporated to dryness in a speed-vac concentrator and reconstituted in 5% acetonitrile in 0.1% formic acid. Samples were kept at −20° C. until analysis.
Baboon plasma samples, 40 μL, were mixed with internal standard and dissolved 1:1 with 40 mM ammonium carbonate buffer. Rapigest detergent was added to a final concentration of 0.1%. Disulfide bridges were reduced in 5 mM DTT for 30 min at 60° C. Alkylation of cysteines was done by addition of iodoacetamide to a final concentration of 15 mM and incubation for 30 min in dark. The sample was enzymatically digested by addition of 16 μL of a 1 μG/μL trypsin solution and incubation overnight at 37° C. After that, the sample pH was lowered with 5% TFA to induce detergent degradation. To avoid nonspecific adsorption of very hydrophobic peptides, acetonitrile was added to 20%. The samples were centrifuged at 6° C. and 14000 rpm for 30 min and the supernatant was diluted with 0.1% formic acid to reduce acetonitrile concentration to 10% prior to filtration with a 10 kDa cut-off microcon centrifugal filter (Millipore, Billerica, Mass.). The filter was washed with 50 μL of 10% ACN in 0.1% formic acid and the collected sample was evaporated to dryness and reconstituted with 10% ACN in 0.1% formic acid.
LC-MS/MS analysis was performed on a SYNAPT HDMS (Waters, Milford, Mass.) controlled by MassLynx 4.1 software (Waters) and equipped with a nanoESI source. Each sample was injected in triplicate. A nanoACQUITY UPLC (Waters) system was used for peptide separation by reversed-phase liquid chromatography. After injection, analytes were trapped for 3 min with 3% mobile phase A (0.1% formic acid in water) at 5 μl/min on a 5 μm Symmetry C18 column (180 μm×20 mm, Waters) and further separated on a 1.7 μm BEH130 C18 column (75 μm×150 mm, Waters). The analytical column temperature was held at 35° C. Peptides were separated at flow rate 0.3 μl/min. The gradient was linear 3-40% B (0.1% formic acid in acetonitrile), either 50 min long, or 60 min for the digested samples. The capillary voltage was 3.2 kV, the cone voltage was 35 V and the source temperature was 100° C. [Glu1]-fibrinogen peptide was used for lock-mass correction with a sampling rate of 30 s. Mass spectra were acquired in positive mode over an m/z range 400-2000 Da at scan rate 0.6 s. The time window used for the MS/MS function was ±3 min of the retention time of the selected peptide. The presence of the analyte was confirmed by MS/MS. Selectivity was studied by analysis of blank samples to determine the presence of any interference coeluting with the analyte.
Juvenile baboons (P. Anubis, Baboon Research Resources, University of Oklahoma) weighing 5-8 kg were used. Three baboons were used for the study; one for each compound. All animals received a bolus dose of peptides (10 mg) by injection through the peripheral vein. […]

Compound | IC50-fold change [1] | IC50 [2] [µM] | Kd (C3b) [µM] | Koff (C3b) | Kon (C3b) | half-life ([3]; in vivo, iv, 10 mg) [h] | fold improvement of half-life ([3]; in vivo) [fold] | half-life ([3]; in vivo, baboon, intravenous bolus 10 mg, read-out: plasma half-life (converted)) [h] | fold improvement of half-life ([3]; relative to unconjugated peptide 17, baboon) [fold]
Ac-I[CVYQDWGAHRC]T-NH2 [Peptide 1, reference compound] | 1 | 2.4 | – | – | – | – | – | – | –
CC[C@H](C)[C@H](NC(C)=O)C(=O)N[C@H]1CSSC[C@@H](C(=O)N[C@H](C(=O)NCCOCCOCCOCC(=O)NCCOCCOCCOCC(=O)N[C@@H](CCCCNC(=O)CCNS(=O)(=O)c2ccc3ccccc3c2)C(N)=O)[C@@H](C)CC)NC(=O)[C@H](CCCNC(=N)N)NC(=O)[C@H](Cc2c[nH]cn2)NC(=O)[C@H](C)NC(=O)CN(C)C(=O)[C@H](Cc2c[nH]c3ccccc23)NC(=O)[C@H](CC(=O)O)NC(=O)[C@H](CCC(N)=O)NC(=O)[C@H](Cc2cn(C)c3ccccc23)NC(=O)[C@H](C(C)C)NC1=O [Peptide 17-ABM] | – | – | 0.0047 | 5.6 10^−3, s^−1 | 1.2 10^6, M^−1 · s^−1 | 5 | 5 | – | –
CC[C@H](C)[C@H](NC(C)=O)C(=O)N[C@H]1CSSC[C@@H](C(=O)N[C@H](C(=O)NCCOCCOCCOCC(=O)NCCOCCOCCOCC(=O)N[C@@H](CCCCNC(=O)Cn2cc(C(=O)N[C@@H](CCCNC(=N)N)C(=O)N[C@@H](CC(C)C)C(=O)N[C@H](C(=O)N[C@@H](CCC(=O)O)C(=O)N[C@@H](CC(=O)O)C(=O)N[C@H](C(=O)N[C@H]3CSSC[C@@H](C(=O)N[C@@H](CC(C)C)C(=O)N[C@@H](Cc4c[nH]c5ccccc45)C(=O)N[C@@H](CCC(=O)O)C(=O)N[C@@H](CC(=O)O)C(=O)N[C@@H](CC(=O)O)C(N)=O)NC(=O)CNC(=O)[C@H](Cc4c[nH]c5ccccc45)NC(=O)[C@H](CCCNC(=N)N)NC(=O)[C@@H]4CCCN4C(=O)[C@H](CC(C)C)NC3=O)[C@@H](C)CC)[C@@H](C)CC)nn2)C(N)=O)[C@@H](C)CC)NC(=O)[C@H](CCCNC(=N)N)NC(=O)[C@H](Cc2c[nH]cn2)NC(=O)[C@H](C)NC(=O)CN(C)C(=O)[C@H](Cc2c[nH]c3ccccc23)NC(=O)[C@H](CC(=O)O)NC(=O)[C@H](CCC(N)=O)NC(=O)[C@H](Cc2cn(C)c3ccccc23)NC(=O)[C@H](C(C)C)NC1=O [Peptide 17-ABP] | – | – | 0.032 | 3.6 10^−3, s^−1 | 0.1 10^6, M^−1 · s^−1 | – | – | 21 | 21
